Reference: paper PMC11125126, “Synthesis, Characterisation, and In Vitro Evaluation of Biocompatibility, Antibacterial and Antitumor Activity of Imidazolium Ionic Liquids” (Pharmaceutics, 2024)
Read-outs that look alike come from different tables or passages of the source.

Assays:
[1] = Thermogravimetric analysis (TGA), thermal stability; type: physicochemical; details: neat ILs; single-step degradation; 10 °C/min, nitrogen
Protocol: Thermal stability and kinetic parameters of the synthesised ILs were investigated using the TA instruments Q500 thermogravimetric analyser (Milan, Italy). A certain amount of sample (4–5 mg) was placed in a platinum pan and heated at 10 °C min^−1 from 40 to 600 °C under a flow of nitrogen (60 mL/min).
Thermogravimetric analyses were performed to evaluate the thermal stability of ILs and PVC/IL blends. Before testing, the samples were subjected to drying cycles in a vacuum stove for 24 h at 50–60 °C, according to the thermal features of ILs, mainly considering their melting points. The ILs C9mimBF4, C10mimBF4, C9mimDMSIP, and C10mimDMSIP, which are liquid at RT, were left to dry at 30 °C for 4–5 h. […] Considering this, the 40–600 °C degradation temperature range was adopted for the subsequent TGA analyses. […] Furthermore, platinum pans and nitrogen as purge gas were used, and the temperature at which 5% weight loss occurred was defined as Tonset, aiming to avoid the decomposition differences due to pan and gas types, as well as the uncertainty from the manual determination of the Tonset tangent point, respectively. Many features can influence the thermal stability of ILs, mainly the coordinating nature of the anion. Indeed, the highly coordinating halide anions (Cl, Br) display a thermal stability lower than that of poor coordinating anions (PF6). The type of cation core influences the thermal stability of ILs, with a decreasing temperature resistance in the following order: pyrrolidinium, imidazolium, pyridinium, and non-cyclic tetra-alkyl ammonium. The increasing alkyl chain length of the imidazolium cation and branching of the alkyl substituents induce a reduction in thermal stability. Furthermore, a decrease in thermal stability is determined by the presence of alkoxylated side chains in methylimidazolium, piperidinium, and pyrrolidinium cations.
As the industrial production of end products usually involves processing methodologies during which undesirable degradation processes could affect materials’ performance, the thermal stability of neat PVC and PVC/IL film blends was analysed. As detailed for TGA analyses of pure ILs, the stability of the PVC/IL blends was determined at heating runs of 10 °C/min from 40 to 600 °C under a nitrogen atmosphere using a platinum pan. These things considered, the temperature at 5% weight loss was considered as Tonset.

Listeria monocytogenes = test: MIC/MBC by broth dilution, pure ILs; type: cell-based; details: 24 h; for MBC: read-out: MBC; for MIC: read-out: MIC
Source text: (§1) Within the Di3A (Dipartimento di Agricoltura, Alimentazione e Ambiente, University of Catania, Italy) microbial collection, two Gram-negative strains (Escherichia coli and Pseudomonas fluorescens) and one Gram-positive strain (Listeria monocytogenes) were studied in order to define the potential efficacy of ionic liquids in relation to the different structure of the bacterial cell wall.
(§2) For the pure ILs, the minimal inhibitory concentration (MIC) and minimal bactericidal concentration (MBC) were determined in Nutrient Broth (NB, Oxoid, Basingstoke, UK) medium by broth dilution method, according to the Clinical and Laboratory Standards Institute (CLSI).
(§3) All the bacterial strains were individually grown for 24 h at 35 or 27 °C for P. fluorescens, with shaking. After the incubation period, the cells were collected by centrifugation and re-suspended in sterile NB to obtain a stock culture of 10^9 CFU/mL.
(§4) Tubes containing 5 mL of NB with decreasing concentrations of ILs (1000, 500, 250, 125, 50, 25, 12.5, 5 and 0 µg/mL) were inoculated with each bacterial stock culture at a final concentration of 10^6 CFU/mL.
(§5) Tubes were incubated at 35 or 27 °C in an orbital shaker and evaluated for the viable count of E. coli, P. fluorescens, and L. monocytogenes after 24 h by spread-plating 100 µL of each suspension on Nutrient Agar (NA, Oxoid, Basingstoke, UK) incubated for 24–48 h at 35 or 27 °C.
(§6) In this study, MIC and MBC are expressed in both µg/mL and µM to make the comparison with the literature data easy. Each experiment was performed in triplicate.

Escherichia coli = test: MIC/MBC by broth dilution, pure ILs; type: cell-based; details: 24 h; for MBC: read-out: MBC; for MIC: read-out: MIC
Source text: as §1, §2, §3, §4, §5, §6

[2] = NI = no inhibition at IL maximum concentration used (1000 µM)

SMILES: CCCCCCCCCCn1cc[n+](C)c1.F[B-](F)(F)F [C10mimBF4]
- Td, maximum degradation temperature [1]: 417.2 °C
- MBC (Listeria monocytogenes; 10^6 CFU/mL): 155 µg/mL
- MIC (Listeria monocytogenes; 10^6 CFU/mL): 77.5 µg/mL
- MBC (Listeria monocytogenes; [2]): 500 µM
- MIC (Listeria monocytogenes; [2]): 250 µM
- MBC (Escherichia coli; 10^6 CFU/mL): 155 µg/mL
- MIC (Escherichia coli; 10^6 CFU/mL): 77.5 µg/mL
- MBC (Escherichia coli; [2]): 500 µM
- MIC (Escherichia coli; [2]): 250 µM
